For 35 molecules, Ki results are on record in patent US8815882B2, “Pyrazole aminopyrimidine derivatives as LRRK2 modulators” (Genentech, Inc., priority 2010, dated 2014).

The target in the first experiment is T1, LRRK2 (Homo sapiens, UniProt Q5S007, G2019S).
T1 construct: purchased Invitrogen PV4882 (lot 567054A)
T1 sequence (Q5S007 whole entry G2019S): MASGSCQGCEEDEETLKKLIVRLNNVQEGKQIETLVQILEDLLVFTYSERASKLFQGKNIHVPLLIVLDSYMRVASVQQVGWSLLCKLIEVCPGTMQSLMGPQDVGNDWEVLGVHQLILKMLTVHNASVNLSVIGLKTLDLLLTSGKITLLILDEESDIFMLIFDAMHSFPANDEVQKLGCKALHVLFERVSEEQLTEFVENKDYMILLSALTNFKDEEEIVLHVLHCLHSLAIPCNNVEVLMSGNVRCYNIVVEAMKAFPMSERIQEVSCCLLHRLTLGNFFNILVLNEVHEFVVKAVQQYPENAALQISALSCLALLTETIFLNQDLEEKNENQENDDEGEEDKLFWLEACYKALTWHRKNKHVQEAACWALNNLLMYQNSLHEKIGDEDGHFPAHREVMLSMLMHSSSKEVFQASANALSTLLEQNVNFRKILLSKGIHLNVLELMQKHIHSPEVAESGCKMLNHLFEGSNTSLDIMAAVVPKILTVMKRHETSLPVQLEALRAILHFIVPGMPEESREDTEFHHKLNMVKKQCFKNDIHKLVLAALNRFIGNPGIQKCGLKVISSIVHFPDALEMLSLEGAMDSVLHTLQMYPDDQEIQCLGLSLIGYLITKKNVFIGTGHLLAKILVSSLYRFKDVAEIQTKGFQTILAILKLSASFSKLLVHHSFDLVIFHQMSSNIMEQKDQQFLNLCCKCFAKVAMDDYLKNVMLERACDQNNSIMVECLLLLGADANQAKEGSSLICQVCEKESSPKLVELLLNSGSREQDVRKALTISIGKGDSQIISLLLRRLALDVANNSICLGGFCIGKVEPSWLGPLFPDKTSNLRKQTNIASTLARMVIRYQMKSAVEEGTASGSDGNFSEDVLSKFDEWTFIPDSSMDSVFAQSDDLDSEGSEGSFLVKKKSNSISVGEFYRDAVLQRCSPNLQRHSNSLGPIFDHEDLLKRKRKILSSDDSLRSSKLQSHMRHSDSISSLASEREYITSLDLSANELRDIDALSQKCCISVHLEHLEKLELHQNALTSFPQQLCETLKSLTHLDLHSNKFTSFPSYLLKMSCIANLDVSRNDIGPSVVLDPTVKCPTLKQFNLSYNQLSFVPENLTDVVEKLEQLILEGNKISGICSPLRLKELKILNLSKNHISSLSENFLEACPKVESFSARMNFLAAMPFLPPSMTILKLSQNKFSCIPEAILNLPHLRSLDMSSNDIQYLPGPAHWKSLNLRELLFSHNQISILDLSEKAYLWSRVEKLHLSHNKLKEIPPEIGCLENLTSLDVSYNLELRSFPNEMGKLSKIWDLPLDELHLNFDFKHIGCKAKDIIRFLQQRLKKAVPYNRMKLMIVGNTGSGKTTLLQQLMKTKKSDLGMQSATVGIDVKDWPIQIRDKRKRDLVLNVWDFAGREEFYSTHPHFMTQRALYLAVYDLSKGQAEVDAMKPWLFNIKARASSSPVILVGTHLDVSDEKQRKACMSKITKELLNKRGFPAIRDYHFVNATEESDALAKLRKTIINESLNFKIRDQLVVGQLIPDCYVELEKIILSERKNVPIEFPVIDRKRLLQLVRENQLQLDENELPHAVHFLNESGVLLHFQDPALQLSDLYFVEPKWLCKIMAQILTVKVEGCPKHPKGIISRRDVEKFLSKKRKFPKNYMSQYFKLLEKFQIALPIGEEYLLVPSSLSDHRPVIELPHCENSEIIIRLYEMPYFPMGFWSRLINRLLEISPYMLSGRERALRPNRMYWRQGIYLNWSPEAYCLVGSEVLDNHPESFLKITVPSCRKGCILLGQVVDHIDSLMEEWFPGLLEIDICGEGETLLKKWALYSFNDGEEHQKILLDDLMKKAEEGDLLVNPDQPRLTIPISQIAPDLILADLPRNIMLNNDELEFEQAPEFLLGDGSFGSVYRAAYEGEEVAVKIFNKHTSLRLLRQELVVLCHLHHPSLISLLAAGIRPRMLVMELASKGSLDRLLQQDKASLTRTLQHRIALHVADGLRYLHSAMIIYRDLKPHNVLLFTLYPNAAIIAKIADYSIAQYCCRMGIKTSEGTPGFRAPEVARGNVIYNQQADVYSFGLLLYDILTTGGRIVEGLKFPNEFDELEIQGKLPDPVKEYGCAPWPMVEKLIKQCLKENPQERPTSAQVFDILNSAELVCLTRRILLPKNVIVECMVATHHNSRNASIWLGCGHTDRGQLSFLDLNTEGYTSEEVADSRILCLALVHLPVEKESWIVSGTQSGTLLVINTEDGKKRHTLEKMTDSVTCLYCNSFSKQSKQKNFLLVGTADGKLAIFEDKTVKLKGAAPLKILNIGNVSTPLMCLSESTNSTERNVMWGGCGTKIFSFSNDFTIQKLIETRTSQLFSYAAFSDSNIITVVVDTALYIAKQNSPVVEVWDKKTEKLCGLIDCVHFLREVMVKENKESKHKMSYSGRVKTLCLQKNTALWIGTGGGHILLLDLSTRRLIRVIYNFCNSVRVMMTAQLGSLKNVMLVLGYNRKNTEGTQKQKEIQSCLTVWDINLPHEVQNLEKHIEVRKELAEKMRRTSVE
The experiment can be described thus: In Vitro LRRK2 Assay (LabChip 3000, fluorescently-labeled peptide substrate, ATP). It is filed as biochemical. As to conditions: Table 9; LRRK2 Ki (micromolar); read-out: LRRK2 Ki (KI). In a few lines: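 Read-out was LabChip capillary electrophoresis, resolving phospho- from non-phospho-peptide by fluorescence intensity. The kinase reaction combined enzyme, ATP, test compound and labeled peptide (4 μM working dilution) for 2 h in darkness before stop solution. Values were reported as Ki, from a tight-binding model with Et, S and Km, or as IC50 or percent inhibition.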
On to `CNc1nc(Nc2cnn(CC(F)(F)F)c2C)ncc1C#N` [Example 358, 2-(5-methyl-1-(2,2,2-trifluoroethyl)-1H-pyrazol-4-ylamino)-4-(methylamino) pyrimidine-5-carbonitrile], for which the Ki (usually the equilibrium dissociation constant of an inhibitor or competing ligand from its target) stood at 32 nM.

As to `CNc1nc(Nc2cnn(C(C)C)c2C)ncc1C#N` [Example 374, 2-(1-isopropyl-5-methyl-1H-pyrazol-4-ylamino)-4-(methylamino) pyrimidine-5-carbonitrile], the Ki was 15.8 nM.

On to `CNc1nc(Nc2cnn(-c3ccccc3)c2C)ncc1C#N` [Example 360, 2-(5-methyl-1-phenyl-1H-pyrazol-4-ylamino)-4-(methylamino) pyrimidine-5-carbonitrile], for which the Ki turned out to be 1.3 nM.

`CNc1nc(Nc2cn(C3CCOCC3)nc2C)ncc1C#N` [Example 362, 2-(3-methyl-1-(tetrahydro-2H-pyran-4-yl)-1H-pyrazol-4-ylamino)-4-(methylamino) pyrimidine-5-carbonitrile]: the Ki is 86 nM.

For the molecule `CNc1nc(Nc2cnn(C(F)F)c2C)ncc1C#N` [Example 384, 2-(1-Difluoromethyl-5-methyl-1H-pyrazol-4-ylamino)-4-methylamino-pyrimidine-5-carbonitrile], the Ki turned out to be 19.1 nM.

Still in this experiment, the particulars now being: Table 10; LRRK2 Ki (micromolar); read-out: LRRK2 Ki (KI).
Turning to `CNc1nc(Nc2cnn(C(C)(C)C#N)c2C)ncc1C(F)(F)F` [Example 401, 2-methyl-2-(5-methyl-4-(4-(methylamino)-5-(trifluoromethyl)pyrimidin-2-ylamino)-1H-pyrazol-1-yl)propanenitrile], the Ki is 0.7 nM.

Consider `CCNC(=O)C1(n2cc(Nc3ncc(C(F)(F)F)c(NC)n3)c(C)n2)CCC1` [Example 428], for which the Ki was 24 nM.

Take `CCNc1nc(Nc2cnn(C(C)(C)C(=O)NC)c2C)ncc1C(F)(F)F` [Example 448, 2-[4-(4-Ethylamino-5-trifluoromethyl-pyrimidin-2-ylamino)-5-methyl-pyrazol-1-yl]-N-methyl-isobutyramide]: the Ki amounted to 15.3 nM.

As for `CNc1nc(Nc2cnn([C@@H](C)C(=O)N3CCCC3)c2C)ncc1C(F)(F)F` [Example 413, (S)-2-(5-methyl-4-(4-(methylamino)-5-(trifluoromethyl)pyrimidin-2-ylamino)-1H-pyrazol-1-yl)-1-(pyrrolidin-1-yl)propan-1-one], the Ki came to 40 nM.

Consider `CNc1nc(Nc2cnn(C(C)(C)C(=O)OC)c2C)ncc1C(F)(F)F` [Example 409, methyl 2-methyl-2-(5-methyl-4-(4-(methylamino)-5-(trifluoromethyl)pyrimidin-2-ylamino)-1H-pyrazol-1-yl)propanoate], for which the Ki came out at 7.6 nM.

As to `CNc1nc(Nc2cnn(C(C)(C)C(=O)N3CCCC3)c2C)ncc1C(F)(F)F` [Example 400, 2-methyl-2-(5-methyl-4-(4-(methylamino)-5-(trifluoromethyl)pyrimidin-2-ylamino)-1H-pyrazol-1-yl)-1-(pyrrolidin-1-yl)propan-1-one], the Ki stood at 404 nM.

The experiment is the same for the next values; noted with them: read-out: LRRK2 Ki (KI), Table 7.
With `COc1nc(Nc2cn(-c3ccncc3C)nc2C)ncc1Cl` [Example 69, 5-chloro-4-methoxy-N-(3-methyl-1-(3-methylpyridin-4-yl)-1H-pyrazol-4-yl)pyrimidin-2-amine], the Ki was found to be 55 nM.

Take `CNc1nc(Nc2cn(C3CCOCC3)nc2C)ncc1C(F)(F)F` [Example 32, N^4-methyl-N^2-(3-methyl-1-(tetrahydro-2H-pyran-4-yl)-1H-pyrazol-4-yl)-5-(trifluoromethyl) pyrimidine-2,4-diamine]: the Ki was found to be 24 nM.

The same experiment, now with this note: read-out: LRRK2 Ki (KI), Table 8.
For the molecule `CNc1nc(Nc2cn(C(C)(C)c3cnn(C)c3)nc2C)ncc1C(F)(F)F` [Example 340, N4-methyl-N2-(3-methyl-1-(2-(1-methyl-1H-pyrazol-4-yl)propan-2-yl)-1H-pyrazol-4-yl)-5-(trifluoromethyl) pyrimidine-2,4-diamine], the Ki was determined as 0.3 nM.

For `CNc1nc(Nc2cn(Cc3cnccn3)nc2C)ncc1C(F)(F)F` [Example 317, N4-Methyl-N2-(3-methyl-1-pyrazin-2-ylmethyl-1H-pyrazol-4-yl)-5-trifluoromethyl-pyrimidine-2,4-diamine], the Ki is 1.2 nM.

As to `CNc1nc(Nc2cnn(CC(C)(C)C#N)c2Cl)ncc1C(F)(F)F` [Example 313, 3-[5-Chloro-4-(4-methylamino-5-trifluoromethyl-pyrimidin-2-ylamino)-pyrazol-1-yl]-2,2-dimethyl-propionitrile], the Ki came out at 1.7 nM.

As for `CCC(C)S(=O)(=O)n1cc(Nc2ncc(C(F)(F)F)c(NC)n2)c(C)n1` (centres unmarked) [Example 220, N2-(1-(sec-butylsulfonyl)-3-methyl-1H-pyrazol-4-yl)-N4-methyl-5-(trifluoromethyl) pyrimidine-2,4-diamine], the Ki is 11.7 nM.

As to `CCNc1nc(Nc2cn(C3CCN(C(C)=O)CC3)nc2C)ncc1C(F)(F)F` [Example 134, 1-(4-(4-(4-(ethylamino)-5-(trifluoromethyl)pyrimidin-2-ylamino)-3-methyl-1H-pyrazol-1-yl)piperidin-1-yl)ethanone], the Ki turned out to be 2.2 nM.

Regarding `CNc1nc(Nc2cnn(C)c2NC)ncc1C(F)(F)F` [Example 194, N4-methyl-N2-(1-methyl-5-(methylamino)-1H-pyrazol-4-yl)-5-(trifluoromethyl) pyrimidine-2,4-diamine], the Ki is 52.2 nM.

`CNc1nc(Nc2cnn(C3CCOC3)c2C)ncc1C(F)(F)F` (centres unmarked) [Example 150, N4-methyl-N2-(5-methyl-1-(tetrahydrofuran-3-yl)-1H-pyrazol-4-yl)-5-(trifluoromethyl) pyrimidine-2,4-diamine]: the Ki is 5.1 nM.

Consider `CNc1nc(Nc2cn(C3CCCOC3)nc2C)ncc1C(F)(F)F` (centres unmarked) [Example 230, N4-methyl-N2-(3-methyl-1-(tetrahydro-2H-pyran-3-yl)-1H-pyrazol-4-yl)-5-(trifluoromethyl) pyrimidine-2,4-diamine], for which the Ki was 9.6 nM.

For `CNc1nc(Nc2cn(C)nc2C2CCC2)ncc1C(F)(F)F` [Example 228, N2-(3-cyclobutyl-1-methyl-1H-pyrazol-4-yl)-N4-methyl-5-(trifluoromethyl) pyrimidine-2,4-diamine], the Ki worked out at 3.4 nM.

`CNc1nc(Nc2cnn(C)c2C2CCC2)ncc1C(F)(F)F` [Example 229, N2-(5-cyclobutyl-1-methyl-1H-pyrazol-4-yl)-N4-methyl-5-(trifluoromethyl) pyrimidine-2,4-diamine]: the Ki worked out at 11 nM.

With `CNc1nc(Nc2cn(C(C)(C)c3ccnn3C)nc2C)ncc1C(F)(F)F` [Example 344, N4-methyl-N2-(3-methyl-1-(2-(1-methyl-1H-pyrazol-5-yl)propan-2-yl)-1H-pyrazol-4-yl)-5-(trifluoromethyl) pyrimidine-2,4-diamine], the Ki turned out to be 1.4 nM.

Take `CCNc1nc(Nc2cn(C3CCN(CCOC)CC3)nc2C)ncc1C(F)(F)F` [Example 282, N4-Ethyl-N2-{1-[1-(2-methoxy-ethyl)-piperidin-4-yl]-3-methyl-1H-pyrazol-4-yl}-5-trifluoromethyl-pyrimidine-2,4-diamine]: the Ki is 5.4 nM.

With `CCNc1nc(Nc2cnn(-c3ccc(S(C)(=O)=O)cc3)c2C)ncc1C(F)(F)F` [Example 163, N4-ethyl-N2-(5-methyl-1-(4-(methylsulfonyl)phenyl)-1H-pyrazol-4-yl)-5-(trifluoromethyl) pyrimidine-2,4-diamine], the Ki was determined as 0.3 nM.

As to `CNc1nc(Nc2cn(Cc3cccnn3)nc2C)ncc1C(F)(F)F` [Example 310, N4-Methyl-N2-(3-methyl-1-pyridazin-3-ylmethyl-1H-pyrazol-4-yl)-5-trifluoromethyl-pyrimidine-2,4-diamine], the Ki worked out at 9.3 nM.

On to `CNc1nc(Nc2cn([C@@H](C)COC)nc2C)ncc1C(F)(F)F` [Example 275, N2-[1-((S)-2-Methoxy-1-methyl-ethyl)-3-methyl-1H-pyrazol-4-yl]-N4-methyl-5-trifluoromethyl-pyrimidine-2,4-diamine], for which the Ki amounted to 8.9 nM.

Turning to `CNc1nc(Nc2cnn(-c3ccc(S(C)(=O)=O)cc3)c2C)ncc1C(F)(F)F` [Example 125, N4-methyl-N2-(5-methyl-1-(4-(methylsulfonyl)phenyl)-1H-pyrazol-4-yl)-5-(trifluoromethyl) pyrimidine-2,4-diamine], the Ki was 4.7 nM.

For `CNc1nc(Nc2cnn(CC3CC3)c2C)ncc1C(F)(F)F` [Example 165, N2-(1-(cyclopropyl-methyl)-5-methyl-1H-pyrazol-4-yl)-N4-methyl-5-(trifluoromethyl) pyrimidine-2,4-diamine], the Ki turned out to be 1.2 nM.

In the case of `CCNc1nc(Nc2cn(S(=O)(=O)C(C)C)nc2C)ncc1C(F)(F)F` [Example 216, N4-ethyl-N2-(1-(isopropylsulfonyl)-3-methyl-1H-pyrazol-4-yl)-5-(trifluoromethyl) pyrimidine-2,4-diamine], the Ki was determined as 3.9 nM.

With `CCNc1nc(Nc2cn(C3CCN(CC4OCCO4)C3)nc2C)ncc1C(F)(F)F` (centres unmarked) [Example 322, N2-[1-(1-[1,3]Dioxolan-2-ylmethyl-pyrrolidin-3-yl)-3-methyl-1H-pyrazol-4-yl]-N4-ethyl-5-trifluoromethyl-pyrimidine-2,4-diamine], the Ki was 4.9 nM.

With `CNc1nc(Nc2cn(C(C)(C)c3nnc(C)o3)nc2C)ncc1C(F)(F)F` [Example 339, N4-methyl-N2-(3-methyl-1-(2-(5-methyl-1,3,4-oxadiazol-2-yl)propan-2-yl)-1H-pyrazol-4-yl)-5-(trifluoromethyl) pyrimidine-2,4-diamine], the inhibition constant Ki is 11.7 nM.

`CNc1nc(Nc2cn(CC(C)(C)C#N)nc2Cl)ncc1C(F)(F)F` [Example 326, 3-[3-Chloro-4-(4-methylamino-5-trifluoromethyl-pyrimidin-2-ylamino)-pyrazol-1-yl]-2,2-dimethyl-propionitrile]: the Ki turned out to be 8.2 nM.

Turning to `CCNc1nc(Nc2cn(CC(C)(C)O)nc2C2CC2)ncc1C(F)(F)F` [Example 236, 1-(3-cyclopropyl-4-(4-(ethylamino)-5-(trifluoromethyl)pyrimidin-2-ylamino)-1H-pyrazol-1-yl)-2-methylpropan-2-ol], the Ki worked out at 1.5 nM.
